Measured values published in PMC7318222, “A Family of Water‐Immiscible, Dipolar Aprotic, Diamide Solvents from Succinic Acid” (Chemsuschem, 2020).

What was measured:
PR = target: T1, PR (Homo sapiens, UniProt P06401); test: PR-anti CALUX reporter gene assay (antagonistic mode); assay type: cell-based; set-up: key: –: no effect observed up to the highest test concentration; settings: PC20, 24 h exposure
T1 construct: expression construct for the full-length human receptor under investigation; expressed in transfected cells; host or cells: human U2-OS cells (ATCC HTB-96), stably transfected
T1 sequence (P06401 1-933): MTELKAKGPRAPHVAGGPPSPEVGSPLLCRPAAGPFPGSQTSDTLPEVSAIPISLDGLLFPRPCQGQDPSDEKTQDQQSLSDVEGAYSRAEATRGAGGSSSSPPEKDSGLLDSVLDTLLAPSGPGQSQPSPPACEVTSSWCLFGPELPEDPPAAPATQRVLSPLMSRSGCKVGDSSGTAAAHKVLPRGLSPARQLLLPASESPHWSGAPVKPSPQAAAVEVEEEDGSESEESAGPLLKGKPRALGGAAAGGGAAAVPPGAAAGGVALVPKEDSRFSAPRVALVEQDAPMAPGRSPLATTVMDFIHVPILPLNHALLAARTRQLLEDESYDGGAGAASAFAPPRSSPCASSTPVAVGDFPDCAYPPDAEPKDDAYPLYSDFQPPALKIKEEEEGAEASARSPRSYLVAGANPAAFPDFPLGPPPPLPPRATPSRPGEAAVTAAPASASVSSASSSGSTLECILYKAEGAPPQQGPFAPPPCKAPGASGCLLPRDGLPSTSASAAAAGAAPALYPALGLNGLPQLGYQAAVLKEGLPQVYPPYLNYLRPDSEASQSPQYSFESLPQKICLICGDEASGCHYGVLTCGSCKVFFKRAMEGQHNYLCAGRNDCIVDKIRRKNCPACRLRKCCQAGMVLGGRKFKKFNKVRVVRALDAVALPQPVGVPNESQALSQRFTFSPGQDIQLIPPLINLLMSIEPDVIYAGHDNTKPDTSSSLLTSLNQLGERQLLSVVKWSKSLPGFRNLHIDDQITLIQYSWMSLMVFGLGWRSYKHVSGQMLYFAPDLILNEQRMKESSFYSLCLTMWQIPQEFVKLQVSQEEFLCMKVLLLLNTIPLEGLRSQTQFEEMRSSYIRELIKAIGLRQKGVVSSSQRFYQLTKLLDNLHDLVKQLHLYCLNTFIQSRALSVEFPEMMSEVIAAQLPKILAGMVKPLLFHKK
Text: 99.8% (anhydrous), 4-nitroaniline ≥99.0%, 1-octanol ≥99.0%, diglyme ≥99.0%, DMSO-d6 (99.8% D) and chloroform-d (99.8% D) were purchased from Sigma-Aldrich. Toluene ≥99.0%, hexane ≥99.5%, DCM ≥99.5%, chloroform ≥99.5%, DMSO ≥99.0% were purchased from VWR. N,N-diethyl-4-nitroaniline ≥98.0% was purchased from Alfa Aeser. Cyrene was supplied by Circa group. N-butylpyrrolidinone was supplied by Eastman chemicals. N,N-dimethylformamide 99.9% and N,N-dimethylacetamide 99.9% were purchased from Fischer. The flakes of Ultrason® E3020 P Polyarylethersulfone of 55,000 Da were obtained from INGE.BASF, Germany. The CALUX cell lines have been described previously.[1] They are based on human U2-OS cells (ATCC, HTB-96) stably transfected with an expression construct for the full-length human receptor under investigation, and a reporter construct consisting of multimerized responsive elements for the cognate receptor coupled to a minimal promoter element (TATA) and a luciferase gene. Cells were maintained as described previously,[2] using cell culture media and supplements from Fisher Scientific as described in the experimental procedures section. […]
(§1) In vitro reporter gene assays
(§2) The automated CALUX assays were carried out similarly as described earlier,[12] with some adaptations. In brief, the assay was performed in CO2 independent medium (Fisher Scientific, […]
(§3) supplement (Fisher Scientific, 11574466), 10 U/mL penicillin and 10 µg/mL streptomycin. A cell suspension in assay medium was made of 1 × 10^5cells/mL, and white 384-wells plates were seeded with 30 µl cell suspension/well. After 24 h, exposure medium was prepared. A dilution series in 0.5log unit increments of each test compound (in DMSO) was added to a 96-wells plate containing assay medium (2% v/v). Of this exposure mixture, 30 µl was added to the assay plates containing the CALUX cells, resulting in a final DMSO concentration of 1%. Additionally, DMSO blanks and a full dose response curve of the relevant reference compound were included on each plate. All samples were tested in triplicate. The preparation of the compound dilution series as well as the exposure of the cells were performed on a Hamilton StarLET liquid handling robot coupled to a Cytomat incubator.
(§4) Directly after exposure, plates were sealed with non-breathing plate seals (Plate sealer, easy seal transparent; Greiner-Bio-One, 676001). After 24 h the exposure medium was removed using an EL406 washer-dispenser (BioTek) and 10 µl/well triton lysisbuffer was added by the EL406.
(§5) Subsequently, the luciferase signal was measured in a luminometer (InfinitePro coupled to a Connect Stacker, both TECAN). In order to be able to detect receptor antagonism, several assays were also performed in antagonistic mode. The assay procedure was as described above, with the only exception that the EC50 concentration of the reference agonist was present during the exposure.
The luminometer data was analysed as follows; the average of the triplicate wells was determined, and the average blank (DMSO) value was subtracted. […] For antagonist- and cytotoxicity experiments, PC20 values were determined instead, which was defined as the concentration where the test compound causes a 20% decrease in the basal signal, which was […]
(§6) curve, the signal induction above background (DMSO) was determined, and the concentration where the compound elicited a 1.5-fold increase above background was used as LEC.

AP1 = AP1 CALUX assay (cell cycle control); assay type: cell-based, human; set-up: key: –: no effect observed up to the highest test concentration; settings: cell signaling pathway assay, 24 h exposure
Text: Six of the CALUX assays (TCF through p53) detect activation of several cellular signaling pathways, which are indicative of general stress and acute toxicity, but also a range of more specific types of toxicity, including reproductive toxicity. […]
DCM ≥99.5%, chloroform ≥99.5%, DMSO ≥99.0% were purchased from VWR. […]
Polyarylethersulfone of 55,000 Da were obtained from INGE.BASF, Germany. The CALUX cell lines have been described previously.[1] They are based on human U2-OS cells (ATCC, HTB-96) stably transfected with an expression construct for the full-length human receptor under investigation, and a reporter construct consisting of multimerized responsive elements for the cognate receptor coupled to a minimal promoter element (TATA) and a luciferase gene. Cells were maintained as described previously,[2] using cell culture media and supplements from Fisher Scientific as described in the experimental procedures section. […]
as §1, §2, §3, §4, §5
The luminometer data was analysed as follows; the average of the triplicate wells was determined, and the average blank (DMSO) value was subtracted. For receptor-based assays the maximum response elicited by the reference compound was set to 100% (full receptor- or pathway activation), and the other values were scaled accordingly. GraphPad Prism was used to fit a sigmoidal curve through the data (four parameters, variable slope). […] For antagonist- and cytotoxicity experiments, PC20 values were determined instead, which was defined as the concentration where the test compound causes a 20% decrease in the basal signal, which was […]
as §6

Compound | LEC PR‐anti (PR) | LEC AP1 (AP1)
CCCCN(CC)C(=O)CCC(=O)N(CC)CCCC [EBSA, N,N′‐diethyl‐N,N′‐dibutylsuccindiamide] | – | –
CCCCN(C)C(=O)CCC(=O)N(C)CCCC [MBSA, N,N′‐dimethyl‐N,N′‐dibutylsuccindiamide] | – | –
CCCCN1CCCC1=O [NBP, N‐Butylpyrrolidinone, reference compound] | – | –
CN1CCCC1=O [NMP, N‐methyl‐2‐pyrrolidone, reference compound] | – | −1.5 Log M
CCCCN(CCCC)C(=O)CCC(=O)N(CCCC)CCCC [TBSA, N,N,N′,N′‐tetrabutylsuccindiamide] | – | –
